Here are results for one compound from PMC4179164, “Ophiobolin A from Bipolaris oryzae Perturbs Motility and Membrane Integrities of Porcine Sperm and Induces Cell Death on Mammalian Somatic Cell Lines” (Toxins, 2014).

≈ marks a conversion by molar mass, not a printed value. Like-named read-outs stand apart in the source and are kept apart here.

For the assay, the system named is boar spermatozoa. The experiment in a line: Sperm motility inhibition assay (progressive and rapid motility). It is filed as cell-based. As to the method:
Furthermore, their physiological characters including their motility are influenced mainly by membrane potentials and ion fluxes. Thus, the change of sperm motility is able to sensitively indicate the substances causing mitochondrial membrane depolarization even at sublethal doses, which is undetectable with other cell lines. Motility of the spermatozoa was judged after exposure of 30 min and 24 h at room temperature with minor modification of a previously described method.
The sperm motility inhibition assay was done as reported by Andersson et al.. Commercial boar semen obtained from Figen Oy Finland extended in MR-A (Kubus, S.A., Madrid, Spain) containing 27 × 10^6 spermatozoa·mL^−1 was used. The purified OPA was diluted by serial dilutions in methanol obtaining two ranges of concentrations with 4-4 levels from 2500 μg mL^−1 to 250.0 μg mL^−1 and from 50 μg mL^−1 to 5.0 μg mL^−1, for short and long time exposures, respectively. Twenty μL of each dilution was administered to 2 mL of MR-A-diluted boar semen resulting approximately 100 times dilution of the original stock solutions; 20 μL of methanol was added to spermatozoa in the same way as a blank assay. The samples were incubated for 30 min and 24 h at room temperature for short and long term exposure assays, respectively. After exposure, motility was induced in the sperm cells by incubation in 37 °C for 5 min and shaking to provide the sperm cells with oxygen. […]
The above described subjective motility assay was calibrated with an automatic Hamilton Thorne sperm motility analyzer (HTM-S, ver. 7.2; Hamilton-Thorn Research, Danvers, MA, USA). […] Thus the protocol for assessing sperm tail beating as a measure of motility inhibition gave 99% similarity to measurements of the proportion of rapidly motile spermatozoa done with Hamilton Thorne sperm analyzer (HTM-S, ver. 7.2; Hamilton-Thorn Research, Danvers, MA, USA) Toxicity was expressed as the endpoint concentration of the OPA solution, where the progressive and rapid motility of the sperm cells were <50% of the vehicle exposed sperm cells. […]

As to `CC(C)=C[C@H]1C[C@H](C)[C@]2(CC[C@]3(C)C[C@H]4[C@H](C(=O)C[C@@]4(C)O)/C(C=O)=C\C[C@H]32)O1` [OPA, ophiobolin A], the half-maximal effective concentration (EC50) runs as follows: (0.5 h, boar spermatozoa, 30 min exposure at room temperature, read-out: Toxic endpoint EC50, Motility inhibition (30 min)) at most 2.5 µg/mL; (24 h, read-out: Toxic endpoint EC50, Motility inhibition (24 h), boar spermatozoa, 24 h exposure at room temperature) 0.25 µg/mL (≈ 0.624 µM).
